Values of other authors, collected in patent publication US10226403B2, “Composition and method for using medicament for endodontic irrigation, stem cell preparation and tissue regeneration” (priority 2012, dated 2019).
Like-named read-outs stand apart in the source and are kept apart here.

In the case of `OCl` [Sodium hypochlorite, sodium hypochlorite], the effectiveness is given as “highly effective” and the effectiveness (at 1.3-2.5%) is given as “ineffective”.
